# Reference: US20250179103A1, “6-OXODECAHYDROPYRROLO[1,2-A][1,5]DIAZOCINE AND 6-OXODECAHYDRO-4H-PYRROLO[2,1-D][1,5]THIAZOCINE DERIVATIVES AS STAT3 AND STAT6 MODULATORS FOR THE TREATMENT OF CANCER AND INFLAMMATORY CONDITIONS” (Recludix Pharma, Inc., priority 2022, published 2025)
# Key:
# [1] = molecular target: T1, Recombinant STAT6 protein (STAT6(W123-T658)) (Homo sapiens, UniProt P42226); assay: STAT6 Fluorescence Polarization (FP) Assay; assay type: binding; conditions: STAT6(W123-T658) 250 nM, probe 5-FAM-ApYKPFQDLI-NH2 2 nM, 45-minute incubation
# T1 construct: Recombinant STAT6 protein (STAT6(W123-T658))
# T1 sequence (P42226 123-658): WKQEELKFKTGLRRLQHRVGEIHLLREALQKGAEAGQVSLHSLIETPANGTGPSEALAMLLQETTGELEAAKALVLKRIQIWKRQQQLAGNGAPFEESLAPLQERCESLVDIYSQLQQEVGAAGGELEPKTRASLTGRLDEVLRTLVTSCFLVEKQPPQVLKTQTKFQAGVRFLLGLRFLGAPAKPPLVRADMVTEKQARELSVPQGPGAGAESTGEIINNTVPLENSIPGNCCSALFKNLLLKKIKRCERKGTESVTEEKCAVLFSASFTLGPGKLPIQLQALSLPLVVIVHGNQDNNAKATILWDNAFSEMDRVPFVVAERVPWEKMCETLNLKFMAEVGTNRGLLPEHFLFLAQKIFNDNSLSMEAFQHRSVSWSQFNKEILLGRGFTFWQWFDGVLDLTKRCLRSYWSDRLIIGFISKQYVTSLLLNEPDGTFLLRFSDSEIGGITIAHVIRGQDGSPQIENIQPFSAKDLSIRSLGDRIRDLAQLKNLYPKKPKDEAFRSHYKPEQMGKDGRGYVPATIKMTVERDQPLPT
# Procedure: STAT6 Fluorescence Polarization (FP) Assay
# An FP assay was developed to determine IC50 values for test substances. Recombinant STAT6 protein (STAT6(W123-T658)) at 250 nM was combined with a fluorescently labeled, phosphotyrosine peptide probe (5-FAM-ApYKPFQDLI-NH2) at 2 nM in FP buffer (10 mM HEPES pH 7.4, 50 mM NaCl, 1 mM EDTA, 0.05% Tween 20.2 mM DTT). 50 μL of STAT6-probe mixture was added to serial diluted compounds in black, 96-well plates (Greiner BioOne 655076) to a final concentration of 1% DMSO. Reaction components were mixed, and FP was measured after 45-minute incubation at room temperature using a Tecan Spark multimode plate reader. FP signal (mP) was plotted against the log concentration of the test substances and IC50 values were calculated by nonlinear regression analysis using GraphPad Prism software. For STAT6 FP assay, A=≤300 nM; B=>300-3000 nM; C=>3-30 μM; and D=>30 μM.
# [2] = molecular target: T2, Recombinant STAT3 protein (STAT3(G127-I722)) (Homo sapiens, UniProt P40763); assay: STAT3 Fluorescence Polarization (FP) Assay; assay type: binding; conditions: STAT3(G127-I722) 25 nM, probe 5-FAM-GpYLPQTV-NH2 2 nM, 45-minute incubation
# T2 construct: Recombinant STAT3 protein (STAT3(G127-I722))
# T2 sequence (P40763 127-722): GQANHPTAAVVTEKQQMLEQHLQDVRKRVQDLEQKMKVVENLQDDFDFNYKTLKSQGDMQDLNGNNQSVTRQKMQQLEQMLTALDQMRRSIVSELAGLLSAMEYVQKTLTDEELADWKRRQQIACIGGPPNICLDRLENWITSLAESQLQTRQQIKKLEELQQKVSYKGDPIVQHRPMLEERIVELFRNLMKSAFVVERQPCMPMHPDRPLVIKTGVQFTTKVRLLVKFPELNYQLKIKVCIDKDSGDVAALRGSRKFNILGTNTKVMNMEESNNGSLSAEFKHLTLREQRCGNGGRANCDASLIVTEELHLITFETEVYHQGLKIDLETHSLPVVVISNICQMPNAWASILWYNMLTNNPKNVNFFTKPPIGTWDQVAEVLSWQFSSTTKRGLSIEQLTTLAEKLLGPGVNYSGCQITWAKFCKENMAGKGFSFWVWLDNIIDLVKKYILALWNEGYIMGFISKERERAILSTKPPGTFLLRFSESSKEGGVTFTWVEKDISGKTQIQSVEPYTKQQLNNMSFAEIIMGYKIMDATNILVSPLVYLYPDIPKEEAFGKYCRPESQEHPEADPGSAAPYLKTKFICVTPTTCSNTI
# Procedure: STAT3 Fluorescence Polarization (FP) Assay
# An FP assay was developed to determine IC50 values for test substances. Recombinant STAT3 protein (STAT3(G127-I722)) at 25 nM was combined with a fluorescently labeled, phosphotyrosine peptide probe (5-FAM-GpYLPQTV-NH2) at 2 nM in FP buffer (10 mM HEPES pH 7.4, 50 mM NaCl, 1 mM EDTA, 0.05% Tween 20.2 mM DTT). 50 μL of STAT3-probe mixture was added to serial diluted compounds in black, 96-well plates (Greiner BioOne 655076) to a final concentration of 1% DMSO. Reaction components were mixed, and FP was measured after 45-minute incubation at room temperature using a Tecan Spark multimode plate reader. FP signal (mP) was plotted against the log concentration of the test substances and IC50 values were calculated by nonlinear regression analysis using GraphPad Prism software. For STAT3 FP assay, A=≤100 nM; B=>100-1000 nM; C=>1-10 μM; and D=>10 μM.
IC50 [1] [µM],IC50 [2] [µM],Compound
0.3 to 3,1 to 10,"COc1ccc(CC2CCCN2C(=O)[C@@H]2CC[C@@H]3CCN(C(C)=O)C[C@H](NC(=O)c4cc5cc(C(F)(F)P(=O)(O)O)ccc5[nH]4)C(=O)N32)cc1 (stereo partly drawn) [Compound 131, ((2-(((5S,8S,10aR)-3-acetyl-8-(2-(4-methoxybenzyl)pyrrolidine-1-carbonyl)-6-oxodecahydropyrrolo[1,2-a][1,5]diazocin-5-yl)carbamoyl)-1H-indol-5-yl)difluoromethyl)phosphonic acid]"
0.3 to 3,0.1 to 1,"CC(=O)N1CC[C@H]2CC[C@@H](C(=O)Nc3ccc(-c4ccccc4)cc3Cc3nccs3)N2C(=O)[C@@H](NC(=O)c2cc3cc(C(F)(F)P(=O)(O)O)ccc3s2)C1 [Compound 196, ((2-(((5S,8S,10aR)-3-acetyl-6-oxo-8-((3-(thiazol-2-ylmethyl)-[1,1′-biphenyl]-4-yl)carbamoyl)decahydropyrrolo[1,2-a][1,5]diazocin-5-yl)carbamoyl)benzo[b]thiophen-5-yl)difluoromethyl)phosphonic acid]"
0.3 to 3,1 to 10,"CC(=O)N1CC[C@H]2CC[C@@H](C(=O)N3C[C@H](C#N)[C@@]4(C3)C(=O)Nc3ccccc34)N2C(=O)[C@@H](NC(=O)c2cc3cc(C(F)(F)P(=O)(O)O)ccc3s2)C1 (single isomer, unassigned) [Compound 13, ((2-(((5S,8S,10aR)-3-acetyl-8-((3R,4′R or 3S,4′S)-4′-cyano-2-oxospiro[indoline-3,3′-pyrrolidine]-1′-carbonyl)-6-oxodecahydropyrrolo[1,2-a][1,5]diazocin-5-yl)carbamoyl)benzo[b]thiophen-5-yl)difluoromethyl)phosphonic acid]"
≤ 0.3,0.1 to 1,"CC(=O)N1CC[C@H]2CC[C@@H](C(=O)N(C)c3ccc4nnccc4c3)N2C(=O)[C@@H](NC(=O)c2cc3cc(C(F)(F)P(=O)(O)O)ccc3s2)C1 [Compound 191, ((2-(((5S,8S,10aR)-3-acetyl-8-(cinnolin-6-yl(methyl)carbamoyl)-6-oxodecahydropyrrolo[1,2-a][1,5]diazocin-5-yl)carbamoyl)benzo[b]thiophen-5-yl)difluoromethyl)phosphonic acid]"
0.3 to 3,> 10,"Cc1ccc2cc(C(=O)N3CC[C@H]4CC[C@@H](C(=O)N5CCOCC5)N4C(=O)[C@@H](NC(=O)c4ccc5ccc(C(F)P(=O)(O)O)cc5c4)C3)cc(Cl)c2n1 (stereo partly drawn) [Compound 366, ((7-(((5S,8S,10aR)-3-(8-chloro-2-methyl-quinoline-6-carbonyl)-8-(morpholine-4-carbonyl)-6-oxodecahydropyrrolo [1,2-a][1,5]diazocin-5-yl)carbamoyl)naphthalen-2-yl)fluoromethyl) phosphonic acid]"
0.3 to 3,1 to 10,"CCC(C)(C)c1ccc(N(C)C(=O)[C@@H]2CC[C@@H]3CCN(C(C)=O)C[C@H](NC(=O)c4cc5cc(C(F)(F)P(=O)(O)O)ccc5s4)C(=O)N32)cc1 [Compound 159, ((2-(((5S,8S,10aR)-3-acetyl-8-(methyl(4-(tert-pentyl)phenyl)carbamoyl)-6-oxodecahydropyrrolo[1,2-a][1,5]diazocin-5-yl)carbamoyl)benzo[b]thiophen-5-yl)difluoromethyl)phosphonic acid]"
0.3 to 3,1 to 10,"CC(=O)N1CC(N(C)C(=O)[C@@H]2CC[C@@H]3CCN(C(C)=O)C[C@H](NC(=O)c4cc5cc(C(F)(F)P(=O)(O)O)ccc5s4)C(=O)N32)C1 [Compound 171, ((2-(((5S,8S,10aR)-3-acetyl-8-((1-acetylazetidin-3-yl)(methyl)carbamoyl)-6-oxodecahydropyrrolo[1,2-a][1,5]diazocin-5-yl)carbamoyl)benzo[b]thiophen-5-yl)difluoromethyl)phosphonic acid]"
0.3 to 3,> 10,"O=C(N[C@H]1CN(C(=O)c2ncn3c2CCCC3)CC[C@H]2CC[C@@H](C(=O)N3CCOCC3)N2C1=O)c1ccc2ccc(C(F)P(=O)(O)O)cc2c1 (stereo partly drawn) [Compound 364, (fluoro(7-(((5S,8S,10aR)-8-(morpholine-4-carbonyl)-6-oxo-3-(5,6,7,8-tetrahydroimidazo[1,5-a]pyridine-1-carbonyl)decahydropyrrolo[1,2-a][1,5]diazocin-5-yl)carbamoyl)naphthalen-2-yl)methyl)phosphonic acid]"
0.3 to 3,1 to 10,"CC(=O)N1CC[C@H]2CC[C@@H](C(=O)N3CCC[C@@H]3Cc3ccccc3)N2C(=O)[C@@H](NC(=O)c2cc3cc(C(F)(F)P(=O)(O)O)ccc3[nH]2)C1 [Compound 129, ((2-(((5S,8S,10aR)-3-acetyl-8-((R)-2-benzylpyrrolidine-1-carbonyl)-6-oxodecahydropyrrolo[1,2-a][1,5]diazocin-5-yl)carbamoyl)-1H-indol-5-yl)difluoromethyl)phosphonic acid]"
3 to 30,> 10,"Cc1ccc2onc(C(=O)N3CC[C@H]4CC[C@@H](C(=O)N5CCOCC5)N4C(=O)[C@@H](NC(=O)c4ccc5ccc(CP(=O)(O)O)nc5c4)C3)c2c1 [Compound 396, ((7-(((5S,8S,10aR)-3-(5-methylbenzo[d]isoxazole-3-carbonyl)-8-(morpholine-4-carbonyl)-6-oxodecahydropyrrolo [1,2-a][1,5]diazocin-5-yl)carbamoyl)quinolin-2-yl)methyl)phosphonic acid]"
0.3 to 3,1 to 10,"C[C@H](C(=O)N1CC[C@H]2CC[C@@H](C(=O)N(C)c3ccccc3)N2C(=O)[C@@H](NC(=O)c2cc3cc(C(F)(F)P(=O)(O)O)ccc3[nH]2)C1)c1ccccc1 [Compound 216, (difluoro(2-(((5S,8S,10aR)-8-(methyl(phenyl)carbamoyl)-6-oxo-3-((S)-2-phenylpropanoyl)decahydropyrrolo[1,2 a][1,5]diazocin-5-yl)carbamoyl)-1H-indol-5-yl)methyl)phosphonic acid]"
0.3 to 3,> 10,"CC(=O)N1CC[C@H]2CC[C@@H](C(=O)N(C)c3ccc(C(C)(C)C#N)cc3)N2C(=O)[C@@H](NC(=O)c2cc3cc(C(F)(F)P(=O)(O)O)ccc3s2)C1 [Compound 2, ((2-(((5S,8S,10aR)-3-acetyl-8-((4-(2-cyanopropan-2-yl)phenyl)(methyl)carbamoyl)-6-oxodecahydropyrrolo[1,2-a][1,5]diazocin-5-yl)carbamoyl)benzo[b]thiophen-5-yl)difluoromethyl)phosphonic Acid]"
0.3 to 3,1 to 10,"CC(=O)N1CC[C@H]2CC[C@@H](C(=O)N(C)c3ccccc3C#N)N2C(=O)[C@@H](NC(=O)c2cc3cc(C(F)(F)P(=O)(O)O)ccc3[nH]2)C1 [Compound 108, ((2-(((5S,8S,10aR)-3-acetyl-8-((2-cyanophenyl)(methyl)carbamoyl)-6-oxodecahydropyrrolo[1,2-a][1,5]diazocin-5-yl)carbamoyl)-1H-indol-5-yl)difluoromethyl)phosphonic acid]"
3 to 30,> 10,"CC(=O)N1CC[C@H]2CC[C@@H](C(=O)N(C)c3ccc4nnccc4c3)N2C(=O)[C@@H](NC(=O)c2ccc3ccc(C(F)(F)P(=O)(O)O)nc3c2)C1 [Compound 120, ((7-(((5S,8S,10aR)-3-acetyl-8-(cinnolin-6-yl(methyl)carbamoyl)-6-oxodecahydropyrrolo[1,2-a][1,5]diazocin-5-yl)carbamoyl)quinolin-2-yl)difluoromethyl)phosphonic acid]"
